Reference: PubChem BioAssay (NCI)
Several values for one entry are separate records, joined by “and”; a condition that tells them apart may be missing. Equal entries are not always repeated.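 Assay format: 96-well plates, 48-hour exposure. GI50 = concentration required for 50% inhibition of growth. TGI: concentration producing complete growth inhibition.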

How the values were obtained:
Experiment in all cases: growth of human tumour cells (NCI), 48 h
786-0 renal = system: 786-0 renal
A498 renal = system: A498 renal
A549 NSCLC = system: A549 NSCLC
ACHN renal = system: ACHN renal
BT-549 breast = system: BT-549 breast
CAKI-1 renal = system: CAKI-1 renal
CCRF-CEM leukemia = system: CCRF-CEM leukemia
COLO 205 colon = system: COLO 205 colon
DLD-1 colon = system: DLD-1 colon
DMS 114 small cell lung = system: DMS 114 small cell lung
DMS 273 small cell lung = system: DMS 273 small cell lung
DU-145 prostate = system: DU-145 prostate
EKVX NSCLC = system: EKVX NSCLC
HCC-2998 colon = system: HCC-2998 colon
HCT-116 colon = system: HCT-116 colon
HCT-15 colon = system: HCT-15 colon
HL-60(TB) leukemia = system: HL-60(TB) leukemia
HOP-18 NSCLC = system: HOP-18 NSCLC
HOP-62 NSCLC = system: HOP-62 NSCLC
HOP-92 NSCLC = system: HOP-92 NSCLC
HS 578T breast = system: HS 578T breast
HT29 colon = system: HT29 colon
IGROV1 ovarian = system: IGROV1 ovarian
K-562 leukemia = system: K-562 leukemia
KM12 colon = system: KM12 colon
KM20L2 colon = system: KM20L2 colon
LOX IMVI melanoma = system: LOX IMVI melanoma
LXFL 529 NSCLC = system: LXFL 529 NSCLC
M14 melanoma = system: M14 melanoma
MALME-3M melanoma = system: MALME-3M melanoma
MCF7 breast = system: MCF7 breast
MDA-MB-231 breast = system: MDA-MB-231 breast
MDA-MB-435 = system: MDA-MB-435
MDA-N = system: MDA-N
MOLT-4 leukemia = system: MOLT-4 leukemia
NCI-H226 lung = system: NCI-H226 lung
NCI-H23 lung = system: NCI-H23 lung
NCI-H460 lung = system: NCI-H460 lung
NCI-H522 lung = system: NCI-H522 lung
NCI/ADR-RES ovarian = system: NCI/ADR-RES ovarian
OVCAR-3 ovarian = system: OVCAR-3 ovarian
OVCAR-4 ovarian = system: OVCAR-4 ovarian
OVCAR-5 ovarian = system: OVCAR-5 ovarian
OVCAR-8 ovarian = system: OVCAR-8 ovarian
PC-3 prostate = system: PC-3 prostate
RPMI-8226 leukemia = system: RPMI-8226 leukemia
RXF 393 renal = system: RXF 393 renal
SF-268 CNS = system: SF-268 CNS
SF-295 CNS = system: SF-295 CNS
SF-539 CNS = system: SF-539 CNS
SK-MEL-2 melanoma = system: SK-MEL-2 melanoma
SK-MEL-28 melanoma = system: SK-MEL-28 melanoma
SK-MEL-5 melanoma = system: SK-MEL-5 melanoma
SK-OV-3 ovarian = system: SK-OV-3 ovarian
SN12C renal = system: SN12C renal
SNB-19 CNS = system: SNB-19 CNS
SNB-75 CNS = system: SNB-75 CNS
SNB-78 CNS = system: SNB-78 CNS
SR leukemia = system: SR leukemia
SW-620 colon = system: SW-620 colon
T-47D breast = system: T-47D breast
TK-10 renal = system: TK-10 renal
U251 CNS = system: U251 CNS
UACC-257 melanoma = system: UACC-257 melanoma
UACC-62 melanoma = system: UACC-62 melanoma
UO-31 renal = system: UO-31 renal

For `CCN(CC)CCC(=O)O[C@H]1CC[C@H](CC(C)[C@H]2CC(=O)C(C)C=C(C)[C@H](OC(=O)CCN(CC)CC)C(OC)C(=O)[C@@H](C)CC(C)/C=C/C=C/C=C(C)C(OC)CC3CC[C@H](C)[C@](O)(O3)C(=O)C(=O)N3CCCCC3C(=O)O2)CC1OC` (stereo not given in full), the TGI (786-0 renal) was 2470 nM and 1720 nM, the TGI (A498 renal) was 1110 nM and the TGI (A549 NSCLC) was 7540 nM and 9530 nM. For the same compound, the TGI (ACHN renal) was 2620 nM and 4480 nM, the TGI (BT-549 breast) was 946 nM and the TGI (CAKI-1 renal) was 3060 nM. The TGI (CCRF-CEM leukemia) was > 10000 nM and 1570 nM, the GI50 (COLO 205 colon) was 1040 nM and the TGI (COLO 205 colon) was 2800 nM and 2490 nM. For the same compound, the TGI (DLD-1 colon) was 2620 nM, the TGI (DMS 114 small cell lung) was 1540 nM and the TGI (DMS 273 small cell lung) was 2320 nM. The GI50 (DU-145 prostate) was 1170 nM, the TGI (DU-145 prostate) was > 10000 nM and 8380 nM and the GI50 (EKVX NSCLC) was 7.04 nM. The TGI (EKVX NSCLC) was over 10000 nM, the GI50 (HCC-2998 colon) was 1030 nM and the TGI (HCC-2998 colon) was 2290 nM and 2040 nM. For the same compound, the GI50 (HCT-116 colon) was 1240 nM, the TGI (HCT-116 colon) was 2570 nM and 2540 nM and the GI50 (HCT-15 colon) was 92.2 nM. For the same compound, the TGI (HCT-15 colon) was 4460 nM and 3840 nM, the GI50 (HL-60(TB) leukemia) was 1830 nM and 345 nM and the TGI (HL-60(TB) leukemia) was 4480 nM and 1160 nM. For the same compound, the TGI (HOP-18 NSCLC) was 3350 nM, the GI50 (HOP-62 NSCLC) was 2.57 nM and 5.47 nM and the TGI (HOP-62 NSCLC) was 1730 nM and 2750 nM. For the same compound, the GI50 (HOP-92 NSCLC) was 25 nM, the TGI (HOP-92 NSCLC) was 4310 nM and 1620 nM and the TGI (HS 578T breast) was 2280 nM. The GI50 (HT29 colon) was 1070 nM, the TGI (HT29 colon) was 2570 nM and 2440 nM and the GI50 (IGROV1 ovarian) was 5.95 nM. For the same compound, the TGI (IGROV1 ovarian) was 1810 nM and 1740 nM, the TGI (K-562 leukemia) was 5200 nM and 3650 nM and the TGI (KM12 colon) was > 10000 nM and 2030 nM. The TGI (KM20L2 colon) was over 4990 nM, the GI50 (LOX IMVI melanoma) was 7.95 nM and the TGI (LOX IMVI melanoma) was 1940 nM and 1650 nM. The TGI (LXFL 529 NSCLC) was 1740 nM, the GI50 (M14 melanoma) was 871 nM and the TGI (M14 melanoma) was 2620 nM and 2200 nM. The GI50 (MALME-3M melanoma) was 57.9 nM, the TGI (MCF7 breast) was 3540 nM and 3780 nM and the GI50 (MDA-MB-231 breast) was 1860 nM. The TGI (MDA-MB-231 breast) was 8140 nM and 1740 nM, the GI50 (MDA-MB-435) was 1140 nM and the TGI (MDA-MB-435) was 2350 nM and 2040 nM. For the same compound, the GI50 (MDA-N) was 1960 nM, the TGI (MDA-N) was 4380 nM and 2120 nM and the GI50 (MOLT-4 leukemia) was 25.5 nM. The TGI (MOLT-4 leukemia) was 5390 nM and 1320 nM, the GI50 (NCI-H226 lung) was 1210 nM and the TGI (NCI-H226 lung) was 3680 nM and 3340 nM. For the same compound, the GI50 (NCI-H23 lung) was 1280 nM, the TGI (NCI-H23 lung) was > 10000 nM and 3530 nM and the GI50 (NCI-H460 lung) was 292 nM and 1340 nM. The TGI (NCI-H460 lung) was 3480 nM and 2690 nM, the GI50 (NCI-H522 lung) was 17 nM and the TGI (NCI-H522 lung) was 1980 nM and 1890 nM. For the same compound, the TGI (NCI/ADR-RES ovarian) was 8130 nM and 6580 nM, the GI50 (OVCAR-3 ovarian) was 16.5 nM and 4.56 nM and the TGI (OVCAR-3 ovarian) was 2270 nM and 2190 nM. The GI50 (OVCAR-4 ovarian) was 1.63 nM, the TGI (OVCAR-4 ovarian) was > 10000 nM and 2460 nM and the GI50 (OVCAR-5 ovarian) was 1630 nM. The TGI (OVCAR-5 ovarian) was 8160 nM and 7730 nM, the GI50 (OVCAR-8 ovarian) was 6.24 nM and the TGI (OVCAR-8 ovarian) was 3490 nM and 2210 nM. The GI50 (PC-3 prostate) was 1220 nM, the TGI (PC-3 prostate) was 2570 nM and 2400 nM and the GI50 (RPMI-8226 leukemia) was 6.66 nM. The TGI (RPMI-8226 leukemia) was 5240 nM and 2950 nM, the TGI (RXF 393 renal) was 2200 nM and the GI50 (SF-268 CNS) was 1160 nM. The TGI (SF-268 CNS) was 3060 nM and 3990 nM, the GI50 (SF-295 CNS) was 1.6 nM and the TGI (SF-295 CNS) was 1460 nM and 1980 nM. The TGI (SF-539 CNS) was 1990 nM and 1810 nM, the GI50 (SK-MEL-2 melanoma) was 359 nM and the TGI (SK-MEL-2 melanoma) was 1910 nM. The TGI (SK-MEL-28 melanoma) was 1950 nM, the GI50 (SK-MEL-5 melanoma) was 40.1 nM and the TGI (SK-MEL-5 melanoma) was 1850 nM and 2160 nM. For the same compound, the TGI (SK-OV-3 ovarian) was 5530 nM, the GI50 (SN12C renal) was 1420 nM and the TGI (SN12C renal) was 4280 nM and 2170 nM. For the same compound, the GI50 (SNB-19 CNS) was 35.8 nM, the TGI (SNB-19 CNS) was 7680 nM and 2240 nM and the GI50 (SNB-75 CNS) was 100 nM. For the same compound, the TGI (SNB-75 CNS) was 1770 nM and 550 nM, the TGI (SNB-78 CNS) was 1700 nM and the TGI (SR leukemia) was 3460 nM and 618 nM. For the same compound, the GI50 (SW-620 colon) was 1370 nM, the TGI (SW-620 colon) was 3660 nM and 2000 nM and the GI50 (T-47D breast) was 26.7 nM. The TGI (T-47D breast) was 4120 nM, the GI50 (TK-10 renal) was 1400 nM and the TGI (TK-10 renal) was 6120 nM and 4250 nM. The GI50 (U251 CNS) was 1130 nM, the TGI (U251 CNS) was 2340 nM and 1900 nM and the TGI (UACC-257 melanoma) was 2540 nM and 2720 nM. The TGI (UACC-62 melanoma) was 1990 nM, the GI50 (UO-31 renal) was 0.67 nM and 5.13 nM and the TGI (UO-31 renal) was 3080 nM and 1510 nM.
